Legend:
[1] = MTT cell viability assay in normal cells; format: cell-based; details: human, MCF-10A normal mammary epithelial cells
In short: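 MTT read-out (540 nm after DMSO solubilization) of viability in non-tumour MCF-10A breast epithelial cells. Compounds applied at 50 µM in 0.1% DMSO, cells incubated 4 days at 37°C in quadruplicate.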

[2] = system: SK-MEL-5; test: NCI one-dose SRB anti-proliferative screen; format: cell-based; details: Homo sapiens; SK-MEL-5 (Melanoma), NCI one dose 10 µM; read-out: Cell growth inhibition %
Procedure: (§1) The twenty-four synthesized compounds were submitted to the National Cancer Institute (NCI), USA. Eighteen hybrids 7a-h, 7k-r, 7u, and 7v were selected by NCI for one-dose assessment of their anti-proliferative activities at 10 µM dose by Sulforhodamine B colorimetric assay. The assessment was performed in 60 cell lines derived from nine tumor subpanels, comprising lung, leukemia, melanoma, colon, renal, CNS, prostate, breast, and ovarian cancer cell lines.
(§2) The methodology of the NCI anti-proliferative screening has been described in details elsewhere (http://www.dtp.nci.nih.gov).

[3] = system: HCT-15; test: NCI one-dose SRB anti-proliferative screen; format: cell-based; details: Homo sapiens; HCT-15 (Colon Cancer), NCI one dose 10 µM; read-out: Cell growth inhibition %
Procedure: as §1, §2

[4] = system: MALME-3M; test: NCI one-dose SRB anti-proliferative screen; format: cell-based; details: Homo sapiens; MALME-3M (Melanoma), NCI one dose 10 µM; read-out: Cell growth inhibition %
Procedure: as §1, §2

[5] = system: OVCAR-4; test: NCI one-dose SRB anti-proliferative screen; format: cell-based; details: Homo sapiens; OVCAR-4 (Ovarian Cancer), NCI one dose 10 µM; read-out: Cell growth inhibition %
Procedure: as §1, §2

[6] = system: A549/ATCC; test: NCI one-dose SRB anti-proliferative screen; format: cell-based; details: Homo sapiens; A549/ATCC (Non-Small Cell Lung Cancer), NCI one dose 10 µM; read-out: Cell growth inhibition %
Procedure: as §1, §2

[7] = system: CCRF-CEM; test: NCI one-dose SRB anti-proliferative screen; format: cell-based; details: Homo sapiens; CCRF-CEM (Leukemia), NCI one dose 10 µM; read-out: Cell growth inhibition %
Procedure: as §1, §2

[8] = system: UACC-62; test: NCI one-dose SRB anti-proliferative screen; format: cell-based; details: Homo sapiens; UACC-62 (Melanoma), NCI one dose 10 µM; read-out: Cell growth inhibition %
Procedure: as §1, §2

[9] = system: NCI-H23; test: NCI one-dose SRB anti-proliferative screen; format: cell-based; details: Homo sapiens; NCI-H23 (Non-Small Cell Lung Cancer), NCI one dose 10 µM; read-out: Cell growth inhibition %
Procedure: as §1, §2

[10] = system: SN12C; test: NCI one-dose SRB anti-proliferative screen; format: cell-based; details: Homo sapiens, SN 12C (Renal Cancer), NCI one dose 10 µM, read-out: Cell growth inhibition %
Procedure: as §1, §2

[11] = system: HOP-62; test: NCI one-dose SRB anti-proliferative screen; format: cell-based; details: Homo sapiens; HOP-62 (Non-Small Cell Lung Cancer), NCI one dose 10 µM; read-out: Cell growth inhibition %
Procedure: as §1, §2

[12] = system: EKVX; test: NCI one-dose SRB anti-proliferative screen; format: cell-based; details: Homo sapiens; EKVX (Non-Small Cell Lung Cancer), NCI one dose 10 µM; read-out: Cell growth inhibition %
Procedure: as §1, §2

[13] = system: NCI-H522; test: NCI one-dose SRB anti-proliferative screen; format: cell-based; details: Homo sapiens; NCI-H522 (Non-Small Cell Lung Cancer), NCI one dose 10 µM; read-out: Cell growth inhibition %
Procedure: as §1, §2

[14] = system: SNB-19; test: NCI one-dose SRB anti-proliferative screen; format: cell-based; details: Homo sapiens; SNB-19 (CNS Cancer), NCI one dose 10 µM; read-out: Cell growth inhibition %
Procedure: as §1, §2

[15] = system: U251; test: NCI one-dose SRB anti-proliferative screen; format: cell-based; details: Homo sapiens, U-251; U251 (CNS Cancer), NCI one dose 10 µM; read-out: Cell growth inhibition %
Procedure: as §1, §2

[16] = system: SNB-75; test: NCI one-dose SRB anti-proliferative screen; format: cell-based; details: Homo sapiens; SNB-75 (CNS Cancer), NCI one dose 10 µM; read-out: Cell growth inhibition %
Procedure: as §1, §2

[17] = system: SK-OV-3; test: NCI one-dose SRB anti-proliferative screen; format: cell-based; details: Homo sapiens; SK-OV-3 (Ovarian Cancer), NCI one dose 10 µM; read-out: Cell growth inhibition %
Procedure: as §1, §2

[18] = system: NCI-H322M; test: NCI one-dose SRB anti-proliferative screen; format: cell-based; details: Homo sapiens; NCI-H322M (Non-Small Cell Lung Cancer), NCI one dose 10 µM; read-out: Cell growth inhibition %
Procedure: as §1, §2

[19] = system: M14; test: NCI one-dose SRB anti-proliferative screen; format: cell-based; details: Homo sapiens; M14 (Melanoma), NCI one dose 10 µM; read-out: Cell growth inhibition %
Procedure: as §1, §2

[20] = system: HCC-2998; test: NCI one-dose SRB anti-proliferative screen; format: cell-based; details: Homo sapiens; HCC-2998 (Colon Cancer), NCI one dose 10 µM; read-out: Cell growth inhibition %
Procedure: as §1, §2

[21] = system: SF-295; test: NCI one-dose SRB anti-proliferative screen; format: cell-based; details: Homo sapiens; SF-295 (CNS Cancer), NCI one dose 10 µM; read-out: Cell growth inhibition %
Procedure: as §1, §2

[22] = system: NCI-H226; test: NCI one-dose SRB anti-proliferative screen; format: cell-based; details: Homo sapiens; NCI-H226 (Non-Small Cell Lung Cancer), NCI one dose 10 µM; read-out: Cell growth inhibition %
Procedure: as §1, §2

[23] = system: COLO 205; test: NCI one-dose SRB anti-proliferative screen; format: cell-based; details: Homo sapiens; COLO 205 (Colon Cancer), NCI one dose 10 µM; read-out: Cell growth inhibition %
Procedure: as §1, §2

Compound | viability at 96 h, 50 µM [1] [%] | inhibition at 10 µM [2] [%] | inhibition at 10 µM [3] [%] | inhibition at 10 µM [4] [%] | inhibition at 10 µM [5] [%] | inhibition at 10 µM [6] [%] | inhibition at 10 µM [7] [%] | inhibition at 10 µM [8] [%] | inhibition at 10 µM [9] [%] | inhibition at 10 µM [10] [%] | inhibition at 10 µM [11] [%] | inhibition at 10 µM [12] [%] | inhibition at 10 µM [13] [%] | inhibition at 10 µM [14] [%] | inhibition at 10 µM [15] [%] | inhibition at 10 µM [16] [%] | inhibition at 10 µM [17] [%] | inhibition at 10 µM [18] [%] | inhibition at 10 µM [19] [%] | inhibition at 10 µM [20] [%] | further results
O=C(CSc1nnc(-c2ccc3[nH]c(-c4ccc(Cl)cc4)nc3c2)o1)Nc1ccc(C(=O)/C=C/c2ccccc2)cc1 [Compound 7f, 2-{5-[2-(4-Chlorophenyl)-1 H-benzo[d]imidazol-5-yl]-1,3,4-oxadiazol-2-ylthio}-N-{4-[(E)-3-phenylacryloyl]phenyl}acetamide] | 87 | 0.99 | 0 | 3.93 | 0 | 0 | 0 | 5.12 | 0 | 0 | 0 | 0 | 0 | 0 | 3.23 | 1.75 | 0 | 0 | 0 | 0 | melting point: 161 to 163 °C; inhibition at 10 µM [21]: 0%; inhibition at 10 µM [22]: 2.19%; inhibition at 10 µM [23]: 0%
O=C(CSc1nnc(-c2ccc3[nH]c(-c4ccc(Cl)cc4)nc3c2)o1)Nc1ccc(C(=O)/C=C/c2ccc(Cl)cc2)cc1 [Compound 7g, 2-{5-[2-(4-Chlorophenyl)-1 H-benzo[d]imidazol-5-yl]-1,3,4-oxadiazol-2-ylthio}-N-{4-[(E)-3-(4-chlorophenyl)acryloyl]phenyl}acetamide] | 91 | 6.32 | 10.2 | 0 | 0 | 4.52 | 13.6 | 16.8 | 0 | 15.1 | 2.12 | 6.19 | 11.6 | 0.54 | 17.8 | 9.09 | 0 | 4.64 | 0 | 0 | melting point: 215 to 217 °C; inhibition at 10 µM [21]: 7.04%; inhibition at 10 µM [22]: 14%; inhibition at 10 µM [23]: 0%
COc1ccc(/C=C/C(=O)c2ccc(NC(=O)CSc3nnc(-c4ccc5[nH]c(-c6ccc(Cl)cc6)nc5c4)o3)cc2)cc1 [Compound 7h, 2-{5-[2-(4-Chlorophenyl)-1 H-benzo[d]imidazol-5-yl]-1,3,4-oxadiazol-2-ylthio}-N-{4-[(E)-3-(4-methoxyphenyl)acryloyl]phenyl}acetamide] | 87 | 10.3 | 5.06 | 6.52 | 0 | 0 | 40.1 | 16.2 | 6 | 6.65 | 0 | 0 | 20.9 | 0 | 3.98 | 1.47 | 0 | 0 | 0 | 0 | melting point: 228 to 230 °C; inhibition at 10 µM [21]: 0%; inhibition at 10 µM [22]: 12.4%; inhibition at 10 µM [23]: 0%
COc1cc(-c2nc3cc(-c4nnc(SCC(=O)Nc5ccc(C(=O)/C=C/c6ccc(Cl)cc6)cc5)o4)ccc3[nH]2)cc(OC)c1OC [Compound 7v, 2-{5-[2-(3,4,5-Trimethoxyphenyl)-1 H-benzo[d]imidazol-5-yl]-1,3,4-oxadiazol-2-ylthio}-N-{4-[(E)-3-(4-chlorophenyl)acryloyl]phenyl}acetamide] | 87 | 8.57 | 13.1 | 0 | 0 | 0 | 18.4 | 16 | 0 | 9.61 | 0 | 0.51 | 7.4 | 6.59 | 22.4 | 14.7 | 0 | 3.77 | 0 | 0 | inhibition at 10 µM [21]: 2.25%; inhibition at 10 µM [22]: 8.31%; inhibition at 10 µM [23]: 0%
